Assays:
monkeys = assay: Toxicological study in monkeys; type: in vivo; details: oral, increasing daily doses up to 1,500 mg/kg over 10 days
mice = assay: Toxicological study in mice; type: in vivo; details: oral, sub-cutaneous, intra-peritoneal and intravenous routes, doses up to 300 mg/kg/day, daily, as far as 28 days
[1] = tested on: rabbit ventricular cardiomyocytes; assay: Apoptosis by annexin V marking in doxorubicin-exposed cardiomyocytes; type: cell-based; details: 3 hrs after doxorubicin, control 100%
Experimental: (§1) Isolated ventricular cells are obtained from New Zealand male rabbit hearts as described in A. d'Anglemont de Tassigny et al., Fund. Clin. Pharmacol., 18: pp. 531-38, 2004. Briefly, the rabbits (2.0-2.5 kg) are anaesthesized with a pentobarbital (50 mg/kg) solution and then receive heparin (200 IU/kg). The hearts are excised and immediately perfused, for 10-15 minutes by means of a Langendorff apparatus without recirculation with an oxygenated (calcium-free) tyrode isotonic solution (95%, 2-5% CO2) (in mM: NaCl 135, KCl 5.4, Na2PO4 0.33, MgCl2 1.0, HEPES 10, pH adjusted to 7.4 with 1N NaOH at 37° C., 280-300 mOsmol/kgH2O). Next, all the hearts were perfused for 3 minutes in a “recirculation” mode with the same calcium-free Tyrode solution (coronary flow rate, 10-15 mL/min) added with 1 mg/mL of type II collagenase and 0.28 mg/mL of type XIV protease. Finally all the hearts are perfused in a mode without recirculation with the same solution of Tyrode supplemented with 0.3 mM CaCl2 for 10 min. The left ventricle is removed and cut into small pieces; cell dissociation is achieved by mild mechanical stirring. Extracellular calcium is added by increments every 15 minutes, in order to reach a physiological concentration of 1.0 mM. The isolated myocytes are maintained in a medium without serum containing (in mM) NaCl 110, KCl 5.4, Na2PO4 0.33, NaHCO3 25, Glucose 5, MgCl2 0.8, CaCl2 1, pH adjusted to 7.4, right up to 1 h30 before experimentation.
Marking phosphatidylserine with annexin V was used as a quantitative method for measuring apoptosis by using the MiniMacs cell isolation kit (Miltenyi Biotec, Bergisch, Gladbach, Germany). Briefly, the cells exposing phosphatidylserine are marked with annexin V microbeads magnetically, and then passed into a column placed in a magnetic field. The marked cells (which have magnetically marked phosphatidylserine) are retained in the column whereas the non-marked ones (necrotic cells and non-apoptotic cells) are not retained. The column is removed from the magnetic field; the magnetically retained cells exposing phosphatidylserine are eluted as a positive fraction and counted with a Mallassez cell counter. The percentage of apoptotic cells is then referred to the initial number of cells.
Apoptosis is induced in isolated cardiomyocytes by exposing them for 3 to 8 hrs to 1 μM of doxorubicin added in an isotonic solution containing (in mM) NaCl 110, KCl 5.4, Na2PO4 0.33, NaHCO3 25, Glucose 5, MgCl2 0.8, CaCl2 1, pH adjusted to 7.4. Annexin V marking was carried out 3 hrs after the beginning of exposure to doxorubicin since this phenomenon appears very early in the apoptotic cascade. […] The contractility of cardiomyocytes was measured every hour during the 8 hrs of exposure to doxorubicin. […]

Male CD1 adult mice = assay: In vivo model of acute hepatotoxicity induced by Jo2 anti-Fas antibody (ALAT assay, survival)
Text: An acute hepatic damage model may be induced by a single injection of the Jo2 anti-Fas antibody (Ogasawara et al., Nature, August 1993), producing severe hepatic damages and resembling viral, auto-immune or drug-induced hepatitis.
Alanine Aminotransferase (ALAT) also called Serum Glutamic Pyruvic Transaminase (SGPT) is an enzyme present in hepatocytes.
The conducted experimentation consisted in intoxicating animals with Jo2 followed by an assay of ALATs and of testing the cholest-4-en-3-one oxime capability of protecting hepatocytes.
Male CD1 adult mice from the breeder “Elevage Janvier”, (Le Genest-Saint-Isle, France) were used. The animals were identified individually and had free access to water and food.
The stock solution of monoclonal hamster anti-mouse CD95 (Fas) antibody called Jo2, from Pharmingen (BD Biosciences, ref. 554254 batch 66081) is at a concentration of 1 mg/mL in water. The dilutions used are produced in 0.9% sodium chloride in water.
The desired amount of cholest-4-en-3-one oxime is weighed and milled into a fine powder, and then suspended (60 mg/ml) in maize oil. The compound is administered orally (by force-feeding) at a concentration of 5 ml/kg.
A pre-treatment with cholest-4-en-3-one oxime is carried out at a dose of 300 mg/kg per oral administration 4 hrs before administering the Jo2 antibody. […]

caspase-3 = assay: Apoptosis by caspase-3 activity measurement in doxorubicin-exposed cardiomyocytes; type: cell-based, rabbit; details: 8 hrs after exposure, control 18±9 fmol/min
Experimental: as §1
Caspase-3 activity is used as a quantitative method for measuring apoptosis. Briefly, the cells are lysed and the supernatant is used for caspase-3 activity measurement by using the AK-005 kit (Biomol Research Laboratories, Plymouth Meeting, Pa., USA). The fluorogenic substrate for measuring caspase-3 activity (DEVD) is marked with the fluorochrome, 7-amino-4-methyl coumarin (AMC) which produces […] fluorescence detectable in UV light at 360/460 nm for 210 min. AMC is released from the substrate by cleavage by caspase-3, the expression of the enzyme is expressed in fmol/min.
Apoptosis is induced in isolated cardiomyocytes by exposing them for 3 to 8 hrs to 1 μM of doxorubicin added in an isotonic solution containing (in mM) NaCl 110, KCl 5.4, Na2PO4 0.33, NaHCO3 25, Glucose 5, MgCl2 0.8, CaCl2 1, pH adjusted to 7.4. Annexin V marking was carried out 3 hrs after the beginning of exposure to doxorubicin since this phenomenon appears very early in the apoptotic cascade. Caspase-3 activity measurements were conducted 8 hrs after exposure to doxorubicin since this phenomenon takes place later in the apoptosis phenomenon. The contractility of cardiomyocytes was measured every hour during the 8 hrs of exposure to doxorubicin. After all the treatments, the cells were compared with control cardiomyocytes not exposed to doxorubicin. […]

[2] = tested on: rabbit ventricular cardiomyocytes; assay: Contractile dysfunction test induced by doxorubicin (sarcomere shortening of isolated cardiomyocytes); type: cell-based
Experimental: as §1
The myocytes are transferred into a chamber at 37° C., continuously perfused and positioned on the stage of an inverted microscope. The chamber is perfused with a physiological buffer containing (in mM): NaCl-140; KCl 5.4; CaCl2 1; MgCl2 0.8; HEPES 10 and glucose 5.6 (pH=7.4; 290 mOsmol/kgH2O).
Contraction of the myocytes is induced once a second (1 Hz) with platinum field electrodes placed in the chamber and connected to a simulator. The images are captured continuously with a ×20 objective and transmitted to a CCD camera at a rate of 240 samples/s. […]
The myocytes were selected for the study according to the following criterion: a rod-like aspect with very apparent striations and no intracellular vacuola, no spontaneous contraction when they are stimulated with 1 mM Ca^2+, and with constant rest length and contraction amplitude. The length of the sarcomers was measured by a video image analysis program and the data were captured at a rate of 240 samples/s. […]
Apoptosis is induced in isolated cardiomyocytes by exposing them for 3 to 8 hrs to 1 μM of doxorubicin added in an isotonic solution containing (in mM) NaCl 110, KCl 5.4, Na2PO4 0.33, NaHCO3 25, Glucose 5, MgCl2 0.8, CaCl2 1, pH adjusted to 7.4. […] The contractility of cardiomyocytes was measured every hour during the 8 hrs of exposure to doxorubicin. […]

| Compound | toxicity (monkeys) | toxicity (mice) | change in % of annexin V marking ([1]; doxorubicin + 0.3 μM compound) [%] | change in % of annexin V marking ([1]; doxorubicin + 1 μM compound) [%] | change in % of annexin V marking ([1]; doxorubicin + 3 μM compound) [%] | ALAT activity (U/L) Mean +/− SEM (n) (Male CD1 adult mice; 300 mg/kg oral 4 hrs before Jo2 125 μg/kg i.p., measured 24 hrs after Jo2, control 2,586 ± 474, p = 0.0037) | death of mice within 24 hrs following the Jo2 injection (Male CD1 adult mice; 300 mg/kg oral, 4 hrs before the Jo2 antibody) | caspase-3 activity (caspase-3; doxorubicin + 0.3 μM compound) [fmol/min] | caspase-3 activity (caspase-3; doxorubicin + 1 μM compound) [fmol/min] | caspase-3 activity (caspase-3; doxorubicin + 3 μM compound) [fmol/min] | shortening of the peak relatively to the base line ([2]; 0.3 μM compound, 15 min pretreatment, 1 μM doxorubicin, after 4 hrs of exposure) [%] | shortening of the peak relatively to the base line ([2]; 1 μM compound, 15 min pretreatment, 1 μM doxorubicin, after 4 hrs of exposure) [%] | shortening of the peak relatively to the base line ([2]; 3 μM compound, 15 min pretreatment, 1 μM doxorubicin, after 4 hrs of exposure) [%] | change in % of annexin V marking ([1]; 1 μM doxorubicin alone) [%] | caspase-3 activity (caspase-3; 1 μM doxorubicin alone) [fmol/min] | shortening of the peak relatively to the base line ([2]; 1 μM doxorubicin alone, after 4 hours of exposure, control −19.49±2.06%, n=5) [%] |
| --- | --- | --- | --- | --- | --- | --- | --- | --- | --- | --- | --- | --- | --- | --- | --- | --- |
| CC(C)CCC[C@@H](C)[C@H]1CC[C@H]2[C@@H]3CCC4=CC(=NO)CC[C@]4(C)[C@H]3CC[C@]12C [cholest-4-en-3-one oxime] | did not reveal any toxicity | did not show any significant toxicity | 130 | 121 | 115.5 | 1,136 ± 175 (20) U/L | prevent the death of mice | 33 ± 9 | 18 ± 8 | 11 ± 4 | −25.35±0.18 | −15.66±5.72 | −13.95±3.17 |  |  |  |
| COc1cccc2c1C(=O)c1c(O)c3c(c(O)c1C2=O)C[C@@](O)(C(=O)CO)C[C@@H]3O[C@H]1C[C@H](N)[C@H](O)[C@H](C)O1 [doxorubicin, reference compound] |  |  |  |  |  |  |  |  |  |  |  |  |  | 291 | 120 ± 15 | −53.20±7.70 |

Source: patent US9320745B2, “Use of cholest-4-en-3-one derivatives for obtaining a cytoprotective drug” (TROPHOS, priority 2006, dated 2016)
